Data published in patent publication US20210085798A1, “IMMUNITY LINKER MOLECULES AND THEIR USE IN THE TREATMENT OF INFECTIOUS DISEASES” (CENTAURI THERAPEUTICS LIMITED, priority 2018, published 2021).

Legend:
[1] = system: E. coli K12 (NCTC 10538); format: cell-based; conditions: 40 μM Polymyxin B, anti-Gal IgM M86 25 μg/mL, MFI (FITC) over vehicle control
Protocol: The assays were carried out in polystyrene 96-well U bottom plates (Costar). […] The samples were incubated for 1 hour at room temperature shaking at 450 rpm. […] Data from all samples were analysed using Kaluza software (Beckman Coulter).

[2] = system: P. aeruginosa (ATCC 27853); test: Flow cytometric antibody recruitment assay using anti-Gal IgM antibody M86, P. aeruginosa; format: cell-based; conditions: anti-Gal IgM M86 40 μg/mL, MFI (FITC) over vehicle control
Protocol: Flow Cytometric Antibody Recruitment Assay Using an Anti-Galα1-3Galβ1-4GlcNAc (Anti-Gal) Antibody
A secondary fluorescently labelled anti-IgM antibody was used to detect the anti-Gal antibody binding.
The assays were carried out in polystyrene 96-well U bottom plates (Costar). Frozen stocks of P. aeruginosa (American Type Culture Collection, ATCC 27853) in mid-exponential phase were thawed, centrifuged and resuspended in LB broth, Miller (Fisher BP1426-500) at OD595=0.2. The bacteria were grown to mid-exponential phase (OD595=0.4), washed once with Hank's Balanced Salt Solution with calcium and magnesium (HBSS+/+) and then resuspended in HBSS+/+ at a bacterial OD595=0.6. […] After three final washes with 200 μL HBSS+/+, the bacteria were resuspended in 200 μL HBSS+/+ and evaluated for anti-Gal antibody binding on a Cytoflex flow cytometer (Beckman Coulter). 50,000 counts of bacterial particles were sampled and the median fluorescent shift was recorded in the FITC-A channel. Data from all samples were analysed using Kaluza software (Beckman Coulter). […] The fold shift over background was calculated by dividing the Median Fluorescent Intensity (MFI) obtained in the presence of 20 μM of the Example compounds by the MFI value obtained in the vehicle controls, i.e., the absence of Examples. […] The shift in fluorescence intensity (FITC) occurs due to the binding event at each end of the molecule.

Substance: Polymyxin B
- IgM Recruitment (Average fold change) [1]: 4 fold change
- IgM Recruitment (20 μM, Average fold change) [2]: 1 fold change
